Measurements as given in patent publication US11351142B2, “Composition and method for treating neuronal ceroid lipofuscinosis” (Rush University Medical Center, priority 2012, dated 2022).

Key:
primary human astrocytes = test: LysoTracker labeling of lysosomes in primary human astrocytes; assay type: cell-based; details: 25 μM gemfibrozil and 10 μM fenofibrate, 24 hrs
Source text: (§1) DAPI was used to visualize nuclei. Results represent 3 independent experiments.

Cln1 mRNA = Cln1 mRNA expression by semi-quantitative RT-PCR in mouse primary astrocytes; assay type: cell-based; details: 25 μM gemfibrozil, 2, 6, 12, and 24 hrs
Description: Astroglia were isolated from mixed glial cultures as described (17,18) according to the procedure of Giulian and Baker (19). Briefly, on day 9, the mixed glial cultures were washed three times with Dulbecco's modified Eagle's medium/F-12 and subjected to shaking at 240 rpm for 2 h at 37° C. on a rotary shaker to remove microglia. After 2 days, the shaking was repeated for 24 h for the removal of oligodendroglia and to ensure the complete removal of all nonastroglial cells. The attached cells were seeded onto new plates for further studies. Total RNA was isolated from mouse primary astrocytes and human primary astrocytes using RNA-Easy Qiagen (Valencia, Calif.) kit following manufactures protocol. Semi-quantitative RT-PCR was carried out as described earlier (24) using oligo (dT) 12-18 as primer and moloney murine leukemia virus reverse transcriptase (MMLV-RT, Invitrogen) in a 20 μl reaction mixture. The resulting cDNA was appropriately amplified using Promega Master Mix (Madison, Wis.) and the following primers (Invitrogen) for murine genes: […]

CLN2 (−/−) mouse = test: Survival (Kaplan-Meier) of CLN2 (−/−) mice; assay type: in vivo; details: oral 7.5 mg/kg body weight/day from 4 weeks of age
Source text: Treatment was started from 4 weeks of age for all groups. Methyl cellulose was used as vehicle. Top panel: Schematic representation of experiments performed. Bottom panel: Kaplan-Meier plot for percentage survival of treated vs. vehicle or untreated animals.

Cln2 mRNA = Cln2 mRNA expression by RT-PCR and real-time PCR in human primary astrocytes; assay type: cell-based
Description: Primary human astroglia were prepared as described (20,21). […] Briefly, 11- to 17-week-old fetal brains obtained from the Human Embryology Laboratory (University of Washington, Seattle, Wash., USA) were dissociated by trituration and trypsinization. On 9th day, these mixed glial cultures were placed on a rotary shaker at 240 rpm at 37° C. for 2 h to remove loosely attached microglia. On 11th day, the flasks were shaken again at 190 rpm at 37° C. for 18 h to remove oligodendroglia. The attached cells remaining were primarily astrocytes. These cells were trypsinized and subcultured in complete media at 37° C. with 5% CO2 in air to yield more viable and healthy cells. […] Semi-quantitative RT-PCR was carried out as described earlier (24) using oligo (dT) 12-18 as primer and moloney murine leukemia virus reverse transcriptase (MMLV-RT, Invitrogen) in a 20 μl reaction mixture. The resulting cDNA was appropriately amplified using Promega Master Mix (Madison, Wis.) and the following primers (Invitrogen) for murine genes: The mRNA quantification was performed using the ABI-Prism7700 sequence detection system (Applied Biosystems, Foster City, Calif.) using iTaq™ Fast Supermix With ROX (Bio-Rad, Hercules, Calif.) and the following 6-FAM/ZEN/IBFQ-labeled primers for murine genes: Cln2 and Gapdh (Integrated DNA Technologies Coralville, Iowa). […]

TPP1 [1] = test: TPP1 activity assay on cell extracts of treated mouse brain cells; assay type: cell-based; details: WT astrocytes; 25 μM gemfibrozil and 10 μM fenofibrate, 24 hrs
Description: TPP-I activity was assayed in 96-well format plates using the following modification of the method described by Vines and Warburton (6). Briefly, samples and substrate (40 μL) were mixed in individual wells of polystyrene 96-well plate (Nalge Nunc International). […] A3401; Sigma; diluted freshly from a 25 mmol/L stock solution in dimethyl sulfoxide stored at -20° C.) in 0.15 mol/L NaCl-1 g/L Triton X-100-0.1 mol/L sodium acetate, adjusted to pH 4.0 at 20° C. Plates were centrifuged briefly to dispel bubbles and placed in a 37° C. Plates were mixed for 10 s before each reading. The plates were read from the bottom using 360/20 nm excitation and 460/25 nm emission filters. Prior to the assay, the optimum substrate concentration and total protein in cell extract that can used to get best results were determined in the same manner described above, using different substrate concentrations and protein concentrations in the cell extract.

PPARα/RXRα heterodimer = molecular target: T1, PPARα/RXRα heterodimer (Mus musculus, UniProt P23204+P28700); test: Co-immunoprecipitation of PPARα and RXRα from nuclear extract of mouse astrocytes; assay type: cell-based; details: gemfibrozil (10 μM) and RA (0.5 μM) alone and in combination, 6 hrs
T1 construct: endogenous in cells; host or cells: mouse primary astrocytes (nuclear extract)
T1 sequence (P23204 1-468): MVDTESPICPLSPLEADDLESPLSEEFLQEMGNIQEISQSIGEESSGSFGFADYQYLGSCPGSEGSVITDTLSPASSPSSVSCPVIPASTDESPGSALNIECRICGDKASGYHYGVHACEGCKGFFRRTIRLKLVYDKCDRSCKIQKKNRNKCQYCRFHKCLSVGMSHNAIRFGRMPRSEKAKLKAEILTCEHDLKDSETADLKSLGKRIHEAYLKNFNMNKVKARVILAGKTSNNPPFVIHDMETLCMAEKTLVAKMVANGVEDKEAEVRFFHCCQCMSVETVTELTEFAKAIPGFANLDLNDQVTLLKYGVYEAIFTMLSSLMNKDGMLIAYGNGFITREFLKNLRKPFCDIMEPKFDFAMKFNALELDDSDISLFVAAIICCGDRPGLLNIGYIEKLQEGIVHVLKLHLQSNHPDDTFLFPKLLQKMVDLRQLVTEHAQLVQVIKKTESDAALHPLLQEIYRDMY
T1 sequence (P28700 1-467): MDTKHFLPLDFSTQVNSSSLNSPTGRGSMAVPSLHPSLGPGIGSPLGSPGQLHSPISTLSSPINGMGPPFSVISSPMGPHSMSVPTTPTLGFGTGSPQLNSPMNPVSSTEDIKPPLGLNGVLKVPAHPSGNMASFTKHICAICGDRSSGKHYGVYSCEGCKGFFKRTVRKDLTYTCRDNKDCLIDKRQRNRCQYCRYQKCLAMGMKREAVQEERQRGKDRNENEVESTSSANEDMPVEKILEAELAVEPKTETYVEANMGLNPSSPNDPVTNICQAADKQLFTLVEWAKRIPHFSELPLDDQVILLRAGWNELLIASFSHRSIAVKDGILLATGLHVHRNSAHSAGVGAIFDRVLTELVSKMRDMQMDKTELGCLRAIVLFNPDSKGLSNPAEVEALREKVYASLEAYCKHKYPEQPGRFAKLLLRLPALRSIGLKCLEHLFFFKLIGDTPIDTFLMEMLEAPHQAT
Description: After treatment, cells were washed with PBS, scraped into 1.5 mL tubes and centrifuged in 4° C. for 5 min at 500 rpm. The supernatant was aspirated and the pellet was resuspended in a membrane lysis buffer comprised of (4-(2-hydroxyethyl)-1-piperazineethanesulfonic acid) (HEPES, pH 8.0), MgCl2, KCl, dithiothreitol (DTT) and protease/phosphatase inhibitors, vortexed and centrifuged in 4° C. at 15,000 rpm for 3 minutes. Again, the supernatant was aspirated and the pellet was resuspended in a high salt, nuclear envelope lysis buffer comprised of HEPES (pH 8.0), MgCl2, glycerol, NaCl, ethylenediaminetetraacetic acid (EDTA), DTT and protease/phosphatase inhibitors, rotated vigorously in 4° C. for 30 min and centrifuged in 4° C. at 15,000 rpm for 15 minutes. The resultant nuclear pellet was resuspended in IP buffer and a fraction was kept separately as lysate. The remaining nuclear extract was then precleared with 25 ul of protein A-agarose (50%, v/v). The supernatants were immunoprecipitated with 5 ug of anti-RXRα or anti-PPARα or normal IgG (Santa Cruz Biotechnology, Inc.) overnight at 4 C, followed by incubation with protein A-agarose for 4 hrs at 4° C. Protein A-agarose-antigen-antibody complexes were collected by centrifugation at 12,000 rpm for 60 s at 4° C. […]

lysosomal genes [2] = test: Quantitative real-time PCR for lysosomal genes in mouse astrocytes; assay type: cell-based; details: 25 μM gemfibrozil, different time points, serum free
Description: (§2) (FIG. 13A) Quantitative real-time PCR for lysosomal genes in mouse astrocytes treated with 25 μM gemfibrozil for different time points under serum free conditions. […] (FIG. 13B) RT-PCR for lysosomal genes in human astrocytes treated under same condition. […] Results represent 3 independent experiments.

CLN2 (−/−) mice = test: Motor activity monitoring of CLN2 (−/−) mice; assay type: in vivo, mouse; details: after 2 weeks and 6 weeks of gemfibrozil treatment
Description: Each animal was allowed 5 mins of adaptation time followed by monitoring for 5 min. *p-value<0.05. n=15 (untreated), n=20 (treated)

primary human neurons = test: LysoTracker labeling of lysosomes in primary human neurons; assay type: cell-based; details: 25 μM gemfibrozil and 10 μM fenofibrate, 24 hours
Source text: as §1

TPP1 [3] = test: Immunofluorescence for TPP1 in human primary astrocytes; assay type: cell-based; details: 25 μM gemfibrozil and 10 μM fenofibrate, 24 hrs
Description: Following four 15 minute washes with filtered PBS, cells were incubated for 4-5 min with 4′, 6-diamidino-2-phenylindole (DAPI, 1:10,000; Sigma).

[4] = system: CLN2 knockdown mouse astrocytes; test: Peroxide assay in CLN2 knockdown mouse astrocytes; assay type: cell-based; details: astrocytes transfected with CLN2 siRNA 36 hrs, gemfibrozil (25 μM) 6 hrs
Description: Mouse astrocytes were transfected with CLN2 siRNA (1.0 μg) for 36 hrs and treated with gemfibrozil (25 μM) for 6 hrs. Cells were then harvested and subjected to peroxide assay.

lysosomal genes [5] = test: RT-PCR for lysosomal genes in human astrocytes; assay type: cell-based; details: 25 μM gemfibrozil, serum free
Description: as §2

## Cc1ccc(C)c(OCCCC(C)(C)C(=O)O)c1 [gemfibrozil]
Primary human astrocytes
  lysosomal proliferation (LysoTracker): upregulation
Cln1 mRNA
  Cln1 mRNA expression: increase within 12 to 24 h
CLN2 (−/−) mouse
  life span (percentage survival, Kaplan-Meier): prolongs the life span
Cln2 mRNA; 25 μM gemfibrozil, at 12 hrs
  increase in Cln2 mRNA levels, maximum of time course: ~10 fold
Cln2 mRNA; 25 uM gemfibrozil, different concentrations for 12 hrs
  increase in Cln2 mRNA levels, maximum of dose response: ~15 fold
TPP1 [1]
  TPP1 enzymatic activity: drastically increased
PPARα/RXRα heterodimer
  PPARα in immunoblot after immunoprecipitation with RXR Ab: increased abundance of PPARα
  RXR in immunoblot after immunoprecipitation with PPARα Ab, treated vs control: increased presence of RXR
Lysosomal genes [2]
  lysosomal genes mRNA (quantitative real-time PCR): upregulation
CLN2 (−/−) mice
  motor activity parameters: delays the loss of motor activity
Primary human neurons
  lysosomal proliferation (LysoTracker): upregulation
TPP1 [3]
  level of TPP1 protein (immunofluorescence): considerable increase
[4]
  peroxide production: reduces peroxide production
Lysosomal genes [5]
  lysosomal genes mRNA (RT-PCR): upregulation
